Measurements: patent publication US8513232B2, “Substituted spirocyclic piperidine derivatives as histamine-3 (H3) receptor ligands” (Cephalon, Inc., priority 2008, dated 2013)
pKi: −log10 of the molar value. Where two headings read alike, the source gives them in different places.

Columns and labels:
human H3 receptor = molecular target: T1, human H3 receptor (Homo sapiens, UniProt Q9Y5N1); test: Human H3 radioligand binding ([3H]-N-alpha-methylhistamine, SPA)
T1 construct: expressed in transfected cells
T1 sequence (Q9Y5N1 whole entry): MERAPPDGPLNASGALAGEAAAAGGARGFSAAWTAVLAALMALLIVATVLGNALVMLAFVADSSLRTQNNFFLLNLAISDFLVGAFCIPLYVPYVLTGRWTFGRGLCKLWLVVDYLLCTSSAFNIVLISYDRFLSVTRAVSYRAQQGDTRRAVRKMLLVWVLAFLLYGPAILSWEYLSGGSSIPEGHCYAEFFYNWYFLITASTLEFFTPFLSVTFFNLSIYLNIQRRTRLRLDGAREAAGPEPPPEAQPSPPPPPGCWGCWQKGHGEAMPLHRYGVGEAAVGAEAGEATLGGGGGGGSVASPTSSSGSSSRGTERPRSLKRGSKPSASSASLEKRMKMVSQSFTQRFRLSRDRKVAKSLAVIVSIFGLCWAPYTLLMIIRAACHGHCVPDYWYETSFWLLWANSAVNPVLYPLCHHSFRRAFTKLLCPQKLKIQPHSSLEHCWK
Outline: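 Compounds (0.01 nM-30 μM) competed with approximately 1 nM [3H]-N-alpha-methylhistamine for human H3 receptor in membranes of stably transfected CHO cells, 10 μg protein per well, in Tris-HCl pH 7.4/MgCl2/BSA buffer for 4 h at room temperature. Bound radioligand measured by scintillation proximity; 10 μM clobenpropit gave non-specific binding.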

[1] = molecular target: T2, rat histamine H3 receptor (Rattus norvegicus, UniProt Q9QYN8); test: Rat H3 radioligand binding ([3H]-N-alpha-methylhistamine, SPA)
T2 construct: encoding the entire 445-amino-acid rat histamine H3 receptor; expressed in transfected cells; membrane preparation
T2 sequence (Q9QYN8 whole entry): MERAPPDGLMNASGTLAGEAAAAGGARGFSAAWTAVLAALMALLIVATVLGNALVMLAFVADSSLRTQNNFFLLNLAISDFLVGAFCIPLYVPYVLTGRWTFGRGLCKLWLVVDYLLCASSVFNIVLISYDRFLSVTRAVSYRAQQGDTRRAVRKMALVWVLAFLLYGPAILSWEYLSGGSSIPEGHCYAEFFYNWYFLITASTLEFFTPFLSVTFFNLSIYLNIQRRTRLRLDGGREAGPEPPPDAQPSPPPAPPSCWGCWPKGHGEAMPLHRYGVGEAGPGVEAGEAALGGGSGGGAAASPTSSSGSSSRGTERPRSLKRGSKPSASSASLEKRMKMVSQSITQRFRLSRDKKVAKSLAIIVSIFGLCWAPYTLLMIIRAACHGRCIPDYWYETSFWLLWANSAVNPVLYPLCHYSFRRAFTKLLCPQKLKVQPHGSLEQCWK
Outline: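 SPA-bead binding assay using [3H]-N-alpha-methylhistamine (approximately 1 nM final) with test compounds from 0.01 nM to 30 μM. Rat H3 receptor membranes came from stably transfected CHO-A3 cells; incubation ran 4 h at room temperature, in the dark, in Tris pH 7.4 buffer with MgCl2 and BSA. Clobenpropit (10 μM) gave non-specific binding.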

[2] = human H3 binding, Table D, read-out: Human H3 Ki
[3] = rat H3 binding, Table D, read-out: Rat H3 Ki
[4] = Human H3 binding, Table B, Examples 136-362, read-out: hum H3 binding Ki
[5] = Rat H3 binding, Table B, Examples 136-362, read-out: rat H3 binding Ki
[6] = Table C, human H3 binding, read-out: Human H3 Ki
[7] = Table C, rat H3 binding, read-out: Rat H3 Ki

SMILES	pKi (human H3 receptor; [2])	melting point	pKi [1, 3]	pKi (human H3 receptor; [4])	pKi [1, 5]	also measured
CN(C)S(=O)(=O)c1ccc(-c2ccc3c(c2)COC2(CCN(C4CCC4)CC2)O3)s1 [Example 654]	> 6.70	189 to 192 °C	> 6.70			
O=C(Nc1ccc2c(c1)COC1(CCN(C3CCC3)CC1)O2)c1cccnc1 [Example 149]		215 to 217 °C		> 6.70	> 6.70	
O=C1N(c2ccccc2)CCN1c1ccc2c(c1)COC1(CCN(C3CCC3)CC1)O2 [Example 207]		195 to 197 °C		> 6.70	> 6.70	
O=S1(=O)CCC(Oc2ccc3c(c2)CCC2(CCN(C4CCC4)CC2)O3)C1 (stereo not drawn) [Example 490]		252 to 254 °C				pKi (human H3 receptor; read-out: Human H3 Ki): > 6.70; pKi ([1]; read-out: Rat H3 kI): > 6.70
OC1CCN(c2ccc3c(c2)CCC2(CCN(C4CCC4)CC2)O3)CC1 [Example 405]		> 265 °C (dec.)				pKi (human H3 receptor; [6]): > 6.70; pKi [1, 7]: > 6.70
O=c1ccc(-c2ccc3c(c2)COC2(CCN(C4CCC4)CC2)O3)cn1CC(F)(F)F [Example 710]	> 6.70	158 to 160 °C	> 6.70			
CC(C)Cn1cc(-c2ccc3c(c2)CCC2(CCN(C4CCC4)CC2)O3)cn1 [Example 187]		106 to 108 °C		> 6.70	> 6.70	
CNC(=O)c1ccc(-c2ccc3c(c2)COC2(CCN(C4CCC4)CC2)O3)s1 [Example 176]		215 to 219 °C		> 6.70	> 6.70	
CC(=O)N[C@H]1CCN(c2ccc3c(c2)COC2(CCN(C4CCC4)CC2)O3)C1 [Example 342]		77.9 to 80 °C		> 6.70	> 6.70	
c1cc2c(cc1C1CCOCC1)COC1(CCN(C3CCC3)CC1)O2 [Example 479]		249 to 251 °C				pKi (human H3 receptor; read-out: Human H3 Ki): > 6.70; pKi ([1]; read-out: Rat H3 kI): > 6.70
O=C(Nc1cccc(Cl)c1)Nc1ccc2c(c1)COC1(CCN(C3CCC3)CC1)O2 [Example 186]		216 to 217 °C		> 6.70	> 6.70	
CNC(=O)c1cccc(-c2ccc3c(c2)CCOC2(CCN(C4CCC4)CC2)O3)c1 [Example 177]		100.2 to 102.5 °C		6.00 to 6.70	< 6.00	
O=C(NCCO)c1ccc(-c2ccc3c(c2)CCC2(CCN(C4CCC4)CC2)O3)cc1 [Example 140]		145 to 147 °C		> 6.70	> 6.70	
CCc1[nH]c(=O)ccc1-c1ccc2c(c1)COC1(CCN(C3CCC3)CC1)O2 [Example 767]	> 6.70	230 to 231 °C	> 6.70			
O=C1CCC(=O)N1CCCOc1ccc2c(c1)CCC1(CCN(C3CCC3)CC1)O2 [Example 460]		235 to 237 °C				pKi (human H3 receptor; read-out: Human H3 Ki): > 6.70; pKi ([1]; read-out: Rat H3 kI): > 6.70
O=C(O)C1CCCN(c2ccc3c(c2)COC2(CCN(C4CCC4)CC2)O3)C1 (stereo not drawn) [Example 614]	6.00 to 6.70	84 to 86.4 °C	6.00 to 6.70			
COc1cc(C)c(-c2ccc3c(c2)CCC2(CCN(C4CCC4)CC2)O3)cn1 [Example 769]	> 6.70	127 to 128 °C	> 6.70			
CC(C)n1cc(-c2ccc3c(c2)COC2(CCN(C4CCC4)CC2)O3)ccc1=O [Example 719]	> 6.70	176 to 177 °C	> 6.70			
c1cc2c(cc1OCC1CCNCC1)CCC1(CCN(C3CCC3)CC1)O2 [Example 592]	> 6.70	292 to 294 °C	> 6.70			
c1ncc(-c2ccc3c(c2)COC2(CCN(C4CCC4)CC2)O3)cn1 [Example 45]		153 to 155 °C				pKi (human H3 receptor; Table A, human H3 binding, read-out: Human Ki): > 6.70; pKi ([1]; Table A, rat H3 binding, read-out: Rat Ki): > 6.70
COCCNC(=O)CC1CCN(c2ccc3c(c2)COC2(CCN(C4CCC4)CC2)O3)CC1 [Example 588]	> 6.70	150.1 to 152.2 °C	> 6.70			
FC(F)(F)COc1cc(-c2ccc3c(c2)COC2(CCN(C4CCC4)CC2)O3)c(Cl)cn1 [Example 782]	> 6.70	119 to 121 °C	> 6.70			
Cc1ncccc1-c1ccc2c(c1)COC1(CCN(C3CCC3)CC1)O2 [Example 744]	> 6.70	197 to 199 °C	> 6.70			
c1csc(-c2ccc3c(c2)COC2(CCN(C4CCC4)CC2)O3)n1 [Example 143]		181 to 183 °C		> 6.70	> 6.70	
Cc1cc(=O)n(CC(F)(F)F)cc1-c1ccc2c(c1)COC1(CCN(C3CCC3)CC1)O2 [Example 755]	> 6.70	60 to 62 °C	> 6.70			

Continued, in another order:

pKi (human H3 receptor; [2])	melting point	pKi [1, 3]	pKi (human H3 receptor; [4])	pKi [1, 5]	SMILES	also measured
	178 to 181 °C		> 6.70	> 6.70	O=C(c1ccc(-c2ccc3c(c2)COC2(CCN(C4CCC4)CC2)O3)cc1)N1CC[C@H](O)C1 [Example 148]	
	69 to 71 °C		> 6.70	6.00 to 6.70	OC1CC2(CCN(C3CCC3)CC2)Oc2ccc(OCc3ccccc3)cc21 (stereo not drawn) [Example 190]	
> 6.70	94 to 96 °C	> 6.70			COc1cc(-c2ccc3c(c2)COC2(CCN(C4CCC4)CC2)O3)ccc1C(=O)N1CCOCC1 [Example 636]	
> 6.70	174 to 176 °C	> 6.70			O=C(NC1CCOCC1)c1ccc(COc2ccc3c(c2)CCC2(CCN(C4CCC4)CC2)O3)cc1 [Example 647]	
> 6.70	175 to 177 °C	> 6.70			O=c1cc(-c2ccc3c(c2)COC2(CCN(C4CCC4)CC2)O3)ccn1C(F)F [Example 775]	
	114 to 116 °C		> 6.70	> 6.70	O=C(c1ccc(Nc2ccc3c(c2)COC2(CCN(C4CCC4)CC2)O3)cc1)N1CC[C@@H](O)C1 [Example 215]	
	105.2 to 106.9 °C		> 6.70	> 6.70	O=C(c1ccc(-c2ccc3c(c2)COC2(CCN(C4CCC4)CC2)O3)cc1F)N1CCC(O)CC1 [Example 222]	
> 6.70	196 to 198 °C	> 6.70			O=c1cc(-c2ccc3c(c2)COC2(CCN(C4CCC4)CC2)O3)ccn1CC(F)(F)F [Example 772]	
> 6.70	57 to 60 °C	> 6.70			OC(c1cncnc1)c1ccc2c(c1)COC1(CCN(C3CCC3)CC1)O2 (stereo not drawn) [Example 692]	
	217 to 221 °C				FC1(F)CCN(c2ccc3c(c2)COC2(CCN(C4CCC4)CC2)O3)C1 [Example 423]	pKi (human H3 receptor; [6]): > 6.70; pKi [1, 7]: > 6.70
> 6.70	236 to 237 °C	> 6.70			O=C(O)c1ccc(-c2ccc3c(c2)COC2(CCN(C4CCC4)CC2)O3)cc1 [Example 668]	
	210 to 211 °C				O=S1(=O)CCC(c2ccc3c(c2)COC2(CCN(C4CCC4)CC2)O3)CC1 [Example 489]	pKi (human H3 receptor; read-out: Human H3 Ki): > 6.70; pKi ([1]; read-out: Rat H3 kI): > 6.70
